Reference: patent publication US8916498B2, “Safening 6-(trisubstituted phenyl)-4-amino-2-pyridinecarboxylate herbicide injury on direct seeded and transplanted paddy rice” (priority 2008, dated 2014)

Experiments:
transplanted paddy rice [1] = experiment: Safening activity of herbicide mixtures in transplanted paddy rice; assay type: in vivo, Oryza sativa
Description: (§1) The prepared mud was dispensed in 250 mL aliquots into 480 mL non-perforated plastic pots with a surface area of 91.6 cm^2 leaving a headspace of 3 cm in each pot. Rice seeds were planted in Sun Gro MetroMix 306 planting mixture, which typically has a pH of 6.0 to 6.8 and an organic matter content of about 30 percent, in plastic plug trays. Seedlings at the second or third leaf stage of growth were transplanted into 650 mL of mud contained in 960 mL non-perforated plastic pots with a surface area of 91.6 cm^2 four days prior to herbicide application. The paddy was created by filling the 3 cm headspace of the pots with water. […] Nutrients were added as Osmocote (17:6:10, Nitrogen:Phosphorus:Potassium (N:P:K)+minor nutrients) at 2 grams (g) per cup.
(§2) For technical grade compounds and safeners, a weighed amount, determined by the highest rate to be tested, was placed in an individual 120 mL glass vial and was dissolved in 20 mL of acetone to obtain concentrated stock solutions. […] The concentrated stock solutions obtained were diluted with 20 mL of acetone. Applications were made by injecting an appropriate amount of the stock solution into the aqueous layer of the paddy. […] All treated plant material received the same concentration of acetone and crop oil concentrate.
Forms of compound 1 were applied on an acid equivalent basis.

direct seeded rice = conditions: partner 70 g/ha alone
ORYSA (rice) = experiment: Postemergence herbicidal safening in direct seeded rice, visual injury; conditions: for ‘M202’ ORYSA Visual Injury (%) Obs: Safener Alone, 560 g ai/ha; for ‘M202’ ORYSA Visual Injury (%) Obs / Visual Injury (%) ‘Lemont’ ORYSA Obs: after 3 weeks
From the text: A=observed efficacy of active ingredient A at the same concentration as used in the mixture.
B=observed efficacy of active ingredient B at the same concentration as used in the mixture.

weed test plant species = experiment: Herbicidal safening in transplanted paddy rice, visual injury on weeds; assay type: in vivo; conditions: after 3 weeks; for Visual Injury (%) CYPDI Obs: Cyperus difformis; for Visual Injury (%) MOOVA Obs: Monochoria vaginalis
Description: (§3) Evaluation of Herbicidal Safening in Transplanted Paddy Rice
as §1, §2

SEBEX = experiment: Postemergence herbicidal safening in direct seeded rice, visual injury on weed; assay type: in vivo; conditions: alone, after 3 weeks
CYPDI = experiment: as above; assay type: in vivo; conditions: alone, after 3 weeks
ECHCO = experiment: as above; assay type: in vivo; conditions: alone, after 3 weeks
transplanted paddy rice [2] = experiment: Herbicidal safening in transplanted paddy rice, visual injury; assay type: in vivo, Oryza sativa; conditions: safener 1120 g ae/ha alone; after 3 weeks
Description: as §3, §1, §2

[3] = alone, 140 g ai/ha, after 3 weeks (Table 14)
[4] = alone, 280 g ai/ha, after 3 weeks (Table 14)

O=c1c(Cl)c[nH]c(Cl)c1Cl [Pyriclor]
0%: Visual Injury (%) ‘M202’ ORYSA Obs (transplanted paddy rice [1]; partner 140 g/ha alone)

CNc1cnn(-c2cccc(C(F)(F)F)c2)c(=O)c1Cl [Norflurazon]
15%: ORYSA Visual Injury (%) ‘M202’ Obs (direct seeded rice)

CCCCCC(C)OC(=O)COc1ccc(Cl)c2cccnc12 (stereo not drawn) [Cloquintocet-mexyl]
3.3%: ‘M202’ ORYSA Visual Injury (%) Obs (ORYSA (rice))
0%: Visual Injury (%) ‘Lemont’ ORYSA Obs (ORYSA (rice); alone, 35 g ai/ha) | Visual Injury (%) ‘Lemont’ ORYSA Obs (ORYSA (rice); alone, 70 g ai/ha) | Visual Injury (%) ‘Lemont’ ORYSA Obs (ORYSA (rice); alone, 140 g ai/ha) | ORYSA Visual Injury (%) ‘Cheniere’ Obs (ORYSA (rice); [3]) | ORYSA Visual Injury (%) ‘Clearfield’ Obs (ORYSA (rice); [3]) | ORYSA Visual Injury (%) ‘Cocodrie’ Obs (ORYSA (rice); [3]) | ORYSA Visual Injury (%) ‘Lemont’ Obs (ORYSA (rice); [3]) | ORYSA Visual Injury (%) ‘M202’ Obs (ORYSA (rice); [3]) | ORYSA Visual Injury (%) ‘Wells’ Obs (ORYSA (rice); [3]) | Visual Injury (%) ‘Lemont’ ORYSA Obs (ORYSA (rice); alone, 280 g ae/ha) | Visual Injury (%) ‘Lemont’ ORYSA Obs (ORYSA (rice); alone, 280 g ai/ha) | ORYSA Visual Injury (%) ‘Cheniere’ Obs (ORYSA (rice); [4]) | ORYSA Visual Injury (%) ‘Clearfield’ Obs (ORYSA (rice); [4]) | ORYSA Visual Injury (%) ‘Cocodrie’ Obs (ORYSA (rice); [4]) | ORYSA Visual Injury (%) ‘Lemont’ Obs (ORYSA (rice); [4]) | ORYSA Visual Injury (%) ‘M202’ Obs (ORYSA (rice); [4]) | ORYSA Visual Injury (%) ‘Wells’ Obs (ORYSA (rice); [4]) | Visual Injury (%) CYPDI Obs (weed test plant species; safener 70 g ai/ha alone) | Visual Injury (%) CYPDI Obs (weed test plant species; safener 140 g ai/ha alone) | Visual Injury (%) CYPDI Obs (weed test plant species; safener 280 g ai/ha alone) | Visual Injury (%) MOOVA Obs (weed test plant species; safener 70 g ai/ha alone) | Visual Injury (%) MOOVA Obs (weed test plant species; safener 140 g ai/ha alone) | Visual Injury (%) MOOVA Obs (weed test plant species; safener 280 g ai/ha alone) | Visual Injury (%) SEBEX Obs (SEBEX; 35 g ai/ha) | Visual Injury (%) SEBEX Obs (SEBEX; 70 g ai/ha) | Visual Injury (%) SEBEX Obs (SEBEX; 140 g ai/ha) | Visual Injury (%) SEBEX Obs (SEBEX; 280 g ae/ha) | Visual Injury (%) SEBEX Obs (SEBEX; 280 g ai/ha) | Visual Injury (%) CYPDI Obs (CYPDI; 35 g ai/ha) | Visual Injury (%) CYPDI Obs (CYPDI; 70 g ai/ha) | Visual Injury (%) CYPDI Obs (CYPDI; 140 g ai/ha) | Visual Injury (%) CYPDI Obs (CYPDI; 280 g ae/ha) | Visual Injury (%) CYPDI Obs (CYPDI; 280 g ai/ha) | Visual Injury (%) ECHCO Obs (ECHCO; 35 g ai/ha) | Visual Injury (%) ECHCO Obs (ECHCO; 70 g ai/ha) | Visual Injury (%) ECHCO Obs (ECHCO; 140 g ai/ha) | Visual Injury (%) ECHCO Obs (ECHCO; 280 g ae/ha) | Visual Injury (%) ECHCO Obs (ECHCO; 280 g ai/ha)

CCCCOC(=O)[C@@H](C)Oc1ccc(Oc2ccc(C#N)cc2F)cc1 [Cyhalofop-butyl]
0%: Visual Injury (%) ‘M202’ ORYSA Obs (transplanted paddy rice [1]; partner 90 g/ha alone) | Visual Injury (%) ‘M202’ ORYSA Obs (transplanted paddy rice [1]; partner 180 g/ha alone)

CCOC(=O)C1=NN(c2ccc(Cl)cc2Cl)C(C)(C(=O)OCC)C1 (stereo not drawn) [Mefenpyr-diethyl]
10%: ORYSA Visual Injury (%) ‘Cocodrie’ Obs (ORYSA (rice); safener 140 g ai/ha alone) | ORYSA Visual Injury (%) ‘M202’ Obs (ORYSA (rice); safener 140 g ai/ha alone)
0%: ORYSA Visual Injury (%) ‘Clearfield’ Obs (ORYSA (rice); safener 140 g ai/ha alone) | ORYSA Visual Injury (%) ‘Lemont’ Obs (ORYSA (rice); safener 140 g ai/ha alone) | ‘M202’ ORYSA Visual Injury (%) Obs (transplanted paddy rice [2])
0.0%: ‘M202’ ORYSA Visual Injury (%) Obs (ORYSA (rice))

Clc1cc(Cl)nc(-c2ccccc2)n1 [Fenclorim, 4,6-dichloro-2-phenylpyrimidine]
0%: Visual Injury (%) ‘Lemont’ ORYSA Obs (ORYSA (rice); alone, 35 g ai/ha) | Visual Injury (%) ‘Lemont’ ORYSA Obs (ORYSA (rice); alone, 70 g ai/ha) | Visual Injury (%) ‘Lemont’ ORYSA Obs (ORYSA (rice); alone, 140 g ai/ha) | Visual Injury (%) ‘Lemont’ ORYSA Obs (ORYSA (rice); alone, 280 g ai/ha) | Visual Injury (%) CYPDI Obs (weed test plant species; safener 70 g ai/ha alone) | Visual Injury (%) CYPDI Obs (weed test plant species; safener 140 g ai/ha alone) | Visual Injury (%) CYPDI Obs (weed test plant species; safener 280 g ai/ha alone) | Visual Injury (%) MOOVA Obs (weed test plant species; safener 70 g ai/ha alone) | Visual Injury (%) MOOVA Obs (weed test plant species; safener 140 g ai/ha alone) | Visual Injury (%) MOOVA Obs (weed test plant species; safener 280 g ai/ha alone) | Visual Injury (%) SEBEX Obs (SEBEX; 35 g ai/ha) | Visual Injury (%) SEBEX Obs (SEBEX; 70 g ai/ha) | Visual Injury (%) SEBEX Obs (SEBEX; 140 g ai/ha) | Visual Injury (%) SEBEX Obs (SEBEX; 280 g ai/ha) | Visual Injury (%) CYPDI Obs (CYPDI; 35 g ai/ha) | Visual Injury (%) CYPDI Obs (CYPDI; 70 g ai/ha) | Visual Injury (%) CYPDI Obs (CYPDI; 140 g ai/ha) | Visual Injury (%) CYPDI Obs (CYPDI; 280 g ai/ha) | Visual Injury (%) ECHCO Obs (ECHCO; 35 g ai/ha) | Visual Injury (%) ECHCO Obs (ECHCO; 70 g ai/ha) | Visual Injury (%) ECHCO Obs (ECHCO; 140 g ai/ha) | Visual Injury (%) ECHCO Obs (ECHCO; 280 g ai/ha)
6.7%: ‘M202’ ORYSA Visual Injury (%) Obs (ORYSA (rice))
